# Biological target: T1, KCC2 (Homo sapiens, UniProt Q9H2X9)
# T1 construct: expressed in transfected cells; host or cells: HEK293 cells electroporated (Maxcyte STX) with the pcDNA3.1 KCC2 plasmid
# T1 sequence (Q9H2X9 1-1139): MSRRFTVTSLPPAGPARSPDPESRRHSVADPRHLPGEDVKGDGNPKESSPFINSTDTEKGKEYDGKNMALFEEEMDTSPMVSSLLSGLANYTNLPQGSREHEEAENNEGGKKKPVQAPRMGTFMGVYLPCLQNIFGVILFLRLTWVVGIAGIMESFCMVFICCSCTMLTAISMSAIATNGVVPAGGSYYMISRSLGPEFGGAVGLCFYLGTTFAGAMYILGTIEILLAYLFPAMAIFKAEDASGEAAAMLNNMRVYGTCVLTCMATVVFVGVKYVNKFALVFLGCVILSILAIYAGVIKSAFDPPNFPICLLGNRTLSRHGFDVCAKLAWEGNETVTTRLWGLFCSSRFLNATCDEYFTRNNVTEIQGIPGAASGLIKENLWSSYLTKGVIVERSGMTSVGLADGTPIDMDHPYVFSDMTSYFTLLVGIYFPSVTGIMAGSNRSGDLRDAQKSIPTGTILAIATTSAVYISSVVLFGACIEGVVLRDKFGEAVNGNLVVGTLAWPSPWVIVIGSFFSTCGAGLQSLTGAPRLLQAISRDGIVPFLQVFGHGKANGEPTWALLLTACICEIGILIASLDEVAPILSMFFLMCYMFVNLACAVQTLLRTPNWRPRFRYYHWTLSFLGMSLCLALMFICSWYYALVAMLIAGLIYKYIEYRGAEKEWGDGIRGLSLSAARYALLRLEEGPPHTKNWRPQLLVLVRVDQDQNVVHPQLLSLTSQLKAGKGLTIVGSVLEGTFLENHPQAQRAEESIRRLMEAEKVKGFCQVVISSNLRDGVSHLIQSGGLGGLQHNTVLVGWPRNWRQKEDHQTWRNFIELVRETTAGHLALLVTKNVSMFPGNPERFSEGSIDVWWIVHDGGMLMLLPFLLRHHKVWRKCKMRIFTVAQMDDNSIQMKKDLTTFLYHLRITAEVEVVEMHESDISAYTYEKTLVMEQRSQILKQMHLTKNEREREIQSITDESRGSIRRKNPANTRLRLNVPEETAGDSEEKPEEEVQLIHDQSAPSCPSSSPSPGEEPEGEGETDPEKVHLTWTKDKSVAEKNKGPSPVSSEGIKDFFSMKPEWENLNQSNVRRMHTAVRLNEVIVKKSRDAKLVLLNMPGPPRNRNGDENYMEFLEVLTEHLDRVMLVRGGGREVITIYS
# Assay: KCC2 thallium transport FLIPR-based assay (Tl+ influx in HEK293 cells expressing KCC2)
# Format: cell-based
# Conditions: 90 min compound incubation at RT, thallium flux at 120 s used to determine EC50
# Experimental: A thallium transport FLIPR-based assay was used to measure the ability of compounds to activate KCC2. KCC2 activity is assessed by measuring KCC2-dependent Tl^+ influx in a KCC2-expressing cell. The assay protocol was based on those described by Delpire et al (Proc Natl Acad Sci USA. 2009 Mar. 31; 106(13): 5383-5388) and Zhang et al (Journal of Biomolecular Screening 15(2): 2010).
# KCC2 was synthesised and codon optimised by GeneArt based on the Uniprot sequence Q9H2X9. The final sequence was subcloned into pcDNA3.1.
# HEK293 cells were grown in 10 layer cell stacks at 37° C., 5% CO2, in DMEM, 10% fetal calf serum and 2 mM Glutamine. The cells were detached by removing the media and washing the cell stack with 100 ml of PBS. The PBS was removed and 100 ml of 1× TrypLE was added and the cell stack returned to 37° C. for 5 min. The detached cells were then counted in a Vi Cell counter and spun for 10 min at 1250 rpm in a Sorval Legend centrifuge. The cells were diluted down in Maxcyte electroporation buffer at 4× the final concentration and spun as before. The cell pellet was resuspended at 1×10^8/cells per ml and electroporated in a Maxcyte Cl 2.2 bag on a Maxcyte STX machine via the HEK293 programme with 200 ug/ml of plasmid DNA. The cells were then allowed to recover for 30 min before adding to 500 ml of PBS and then counted again on the Vi Cell. The cells were then frozen down in planer controlled rate freeze in 90% complete media, 10% DMSO.
# All reagents were dispensed using a Mulitdrop Combi unless stated otherwise. All FluXOR Invitrogen propriety buffer compositions are mentioned in tables below.
# HEK293 KCC2 cells were harvested at a density of 3.33×10^5 cells/mL in complete media (DMEM, Sigma, D6546, 10% fetal calf serum and 1% Glutamax) and 30 μL per well seeded into 384-well PDL coated black-clear plates (Corning, 354663). Leave cells at RT for 20 mins to settle before incubating for 48 h at 37° C., 5% CO2. Following incubation, perform three wash steps in HBSS (Sigma, H6648) using a Biotek cell washer with the final aspiration leaving 20 μL HBSS residual volume in each well. A further 20 μL per well of thallium loading dye is then added (1 h, RT, protect from light). 5 μL of test compounds (100 μM top concentration, 1:2 dilutions, 12 point curve) were added using the FLIPR TETRA and incubated at RT for 90 min in the dark. Following compound incubation, the thallium flux response is read on FLIPR TETRA (ex. 515-575 nm) which is initiated by FLIRR TETRA dispensing 5 μL stimulus buffer into each well. Recordings are measured every 1 second for 120 seconds. Thallium flux at 120 s used to determine EC50.
# Compound buffer: Assay buffer with 1 μL of bumetanide per 10 ml.
row,SMILES,EC50
1,"CC(C)N1Cc2c(Nc3ccc(C4CCCCC4)cc3)nc(N(C)CCc3ncon3)nc2C1=O [Example 23, 4-[(4-cyclohexylphenyl)amino]-2-{methyl[2-(1,2,4-oxadiazol-3-yl)ethyl]amino}-6-(propan-2-yl)-5,6-dihydro-7H-pyrrolo[3,4-d]pyrimidin-7-one]",2.92 µM
2,"c1cc(C2CCCCC2)ccc1Nc1nc(N2CCOC(C3CC3)C2)nc2c1COC2 (stereo not drawn) [Example 92, N-(4-cyclohexylphenyl)-2-(2-cyclopropyl-morpholin-4-yl)-5,7-dihydrofuro[3,4-d]pyrimidin-4-amine]",2.37 µM
3,"Cc1cc(Nc2nc(N3CCOCC3)nc3c2CN(C(C)C)C3=O)ccc1-c1ccccc1 [Example 88, 4-[(2-methyl[1,1′-biphenyl]-4-yl)amino]-2-(morpholin-4-yl)-6-(propan-2-yl)-5,6-dihydro-7H-pyrrolo[3,4-d]pyrimidin-7-one]",3.52 µM
4,CC(C)N1Cc2c(Nc3ccc(C4CCCCC4)cc3)nc(N(C)CC3CCCO3)nc2C1=O (stereo not drawn) [Example 35],6.3 µM
5,"CC(=O)Nc1cnc2nc(N3CCO[C@H](C)C3)nc(Nc3ccc(C4CCCCC4)cc3)c2c1 [Example 107, (R)—N-(4-((4-cyclohexylphenyl)amino)-2-(2-methylmorpholino)pyrido[2,3-d]pyrimidin-6-yl)acetamide]",6.3 µM
6,"CC(C)N1Cc2c(Nc3ccc(C4CCCCC4)cc3)nc(-n3ccnc3)nc2C1=O [Example 79, 4-((4-cyclohexylphenyl)amino)-2-(1H-imidazol-1-yl)-6-isopropyl-5,6-dihydro-7H-pyrrolo[3,4-d]pyrimidin-7-one]",6.3 µM
7,"C[C@@H]1CN(c2nc3c(c(Nc4ccc(C5CCCCC5)cc4)n2)COC3)CCO1 [Example 90, (R)—N-(4-cyclohexylphenyl)-2-(2-methylmorpholino)-5,7-dihydrofuro[3,4-d]pyrimidin-4-amine]",1.71 µM
8,"C#CCOc1ccc(-c2ccc(Nc3nc(N4CCOCC4)nc4c3CN(C(C)C)C4=O)cc2)cc1 [Example 71, 2-(morpholin-4-yl)-6-(propan-2-yl)-4-({4′-[(prop-2-yn-1-yl)oxy][1,1′-biphenyl]-4-yl}amino)-5,6-dihydro-7H-pyrrolo[3,4-d]pyrimidin-7-one]",4.13 µM
9,"COC(=O)c1cnc2nc(N3CCO[C@H](C)C3)nc(Nc3ccc(C4CCCCC4)cc3)c2c1 [Example 102, methyl (R)-4-((4-cyclohexylphenyl)amino)-2-(2-methylmorpholino) pyrido[2,3-d]pyrimidine-6-carboxylate]",0.7 µM
10,"CC(C)N1Cc2c(Nc3ccc(C4CCCCC4)cc3)nc(-c3ccncc3)nc2C1=O [Example 46, 4-[(4-cyclohexylphenyl)amino]-6-(propan-2-yl)-2-(pyridin-4-yl)-5,6-dihydro-7H-pyrrolo[3,4-d]pyrimidin-7-one]",1.29 µM
11,"CC(C)N1Cc2c(Nc3ccc(C4CCCCC4)cc3)nc(N3CCCOCC3)nc2C1=O [Example 24, 4-[(4-cyclohexylphenyl)amino]-2-(1,4-oxazepan-4-yl)-6-(propan-2-yl)-5,6-dihydro-7H-pyrrolo[3,4-d]pyrimidin-7-one]",2.92 µM

# Results, then the compound that gave them:
row,EC50,SMILES
1,5.71 µM,"CC(C)N1Cc2c(Nc3ccc(C4CCC4)cc3)nc(N3CCOCC3)nc2C1=O [Example 63, 4-[(4-cyclobutylphenyl)amino]-2-(morpholin-4-yl)-6-(propan-2-yl)-5,6-dihydro-7H-pyrrolo[3,4-d]pyrimidin-7-one]"
2,3.77 µM,"CC(C)c1ccc(Nc2nc(N3CCSCC3)nc3c2CN(C(C)C)C3=O)cc1 [Example 5, 6-(propan-2-yl)-4-{[4-(propan-2-yl)phenyl]amino}-2-(thiomorpholin-4-yl)-5,6-dihydro-7H-pyrrolo[3,4-d]pyrimidin-7-one]"
3,3.28 µM,"CCC(C)c1ccc(Nc2nc(N3CCO[C@H](C)C3)nc3c2CN(C(C)C)C3=O)cc1 (stereo partly drawn) [Example 56, 4-{[4-(butan-2-yl)phenyl]amino}-2-[(2R)-2-methylmorpholin-4-yl]-6-(propan-2-yl)-5,6-dihydro-7H-pyrrolo[3,4-d]pyrimidin-7-one]"
4,2.3 µM,"CCCCCc1ccc(Nc2nc(N3CCO[C@H](C)C3)nc3c2CN(C(C)C)C3=O)cc1 [Example 55, 2-[(2R)-2-methylmorpholin-4-yl]-4-[(4-pentylphenyl)amino]-6-(propan-2-yl)-5,6-dihydro-7H-pyrrolo[3,4-d]pyrimidin-7-one]"
5,7.65 µM,"CC(C)N1Cc2c(Nc3ccc(CC(F)(F)F)cc3)nc(N3CCO[C@H](C)C3)nc2C1=O [Example 65, 2-[(2R)-2-methylmorpholin-4-yl]-6-(propan-2-yl)-4-{[4-(2,2,2-trifluoroethyl)phenyl]amino}-5,6-dihydro-7H-pyrrolo[3,4-d]pyrimidin-7-one]"
6,3.6 µM,"CC(C)N1Cc2c(Nc3ccc(OCc4ccccc4)cc3)nc(N3CCO[C@H](C)C3)nc2C1=O [Example 57, 4-[(4-(benzyloxy)phenyl]amino}-2-[(2R)-2-methylmorpholin-4-yl]-6-(propan-2-yl)-5,6-dihydro-7H-pyrrolo[3,4-d]pyrimidin-7-one]"
7,4.07 µM,"CCN1Cc2c(Nc3ccc(C(C)C)cc3)nc(N3CCO[C@H](C)C3)nc2C1=O [Example 67, 6-ethyl-2-[(2R)-2-methylmorpholin-4-yl]-4-{[4-(propan-2-yl)phenyl]amino}-5,6-dihydro-7H-pyrrolo[3,4-d]pyrimidin-7-one]"
8,1.35 µM,"CC1CN(c2nc(Nc3ccc(C4CCCCC4)cc3)c3c(n2)C(=O)N(C(C)C)C3)CCO1 (stereo not drawn) [Example 12, 4-[(4-cyclohexylphenyl)amino]-2-(2-methylmorpholin-4-yl)-6-(propan-2-yl)-5,6-dihydro-7H-pyrrolo[3,4-d]pyrimidin-7-one]"
9,6.14 µM,"CC(C)c1ccc(Nc2nc(N3CCOCC3C)nc3c2CN(C(C)C)C3=O)cc1 (stereo not drawn) [Example 9, 2-(3-methylmorpholin-4-yl)-6-(propan-2-yl)-4-{[4-(propan-2-yl)phenyl]amino}-5,6-dihydro-7H-pyrrolo[3,4-d]pyrimidin-7-one]"
10,3.88 µM,"CC(C)N1Cc2c(Nc3ccc(C(F)(F)C(F)(F)F)cc3)nc(N3CCOCC3)nc2C1=O [Example 83, 2-(morpholin-4-yl)-4-{[4-(pentafluoroethyl)phenyl]amino}-6-(propan-2-yl)-5,6-dihydro-7H-pyrrolo[3,4-d]pyrimidin-7-one]"

# Source: patent US12617795B2, “Substituted 6,7-dihydro-5H-pyrrolo[3,4-d]pyrimidines, 5,7-dihydrofuro[3,4-d]pyrimidines, and pyrido[2,3-d]pyrimidines as KCC2 modulators” (Astrazeneca AB, priority 2020, dated 2026)
